Measurements from patent US6150341A, “Vitamin B12 derivatives and methods for their preparation” (Biotch Australia Pty Limited, priority 1998, dated 2000).

Molecular target: T1, Porcine Intrinsic Factor (Sus scrofa, UniProt A0A8D1ENZ1)
T1 construct: purchased Sigma
Experiment: Relative IF affinity of 5'O-VB12 derivatives (57CoVB12 competition, BSA-coated charcoal separation)
Settings: inhibition of 57CoVB12 binding to porcine IF compared to unmodified VB12; 20 minutes at room temperature, pH 7.5
Procedure: Determination of the relative IF affinity of various 5'O-VB12 derivatives.
IF Buffer: BSA (VB12 and IF deficient) BSA (Sigma A-3902) was dissolved at 1 mg/ml in 0.1M potassium phosphate buffer pH 7.5.
^57 CoVB12 : ^57 Co stock (50 μl) (Kodak) was diluted into 50 ul of stock in 25 ml of IF buffer to give a solution of 1 ng ^57 CoVB12 /25 ml. 250 ng cold VB12 was added to 25 ml of hot ^57 CoVB12 solution to give a 10 ng/ml solution.
Porcine Intrinsic Factor: Porcine IF (Sigma) was dissolved in IF buffer at 200 Units/ml, and frozen in 500 ul lots (100 IU aliquots) until required.
BSA-coated charcoal: BSA (1%) was added to an equal volume of 5% charcoal solution of 0.1 M potassium phosphate buffer pH 7.5 and stirred gently for 30 minutes.
Ten fold up dilutions of VB12 or VB12 derivatives were prepared down to 1 ng/ml in IF buffer. An equal volume of diluted IF was added to each sample and incubated for 20 minutes at room temperature. An equal volume of the BSA-coated charcoal was added to each sample, which was mixed prior to centrifugation. Following centrifugation the supernatant and pellet of each sample were separated and ^57 CoVB12 determined by counting in a gamma counter. Data is represented as the % inhibition of ^57 CoVB2 binding when compared to unmodified VB12.

T1 sequence (A0A8D1ENZ1 29-425): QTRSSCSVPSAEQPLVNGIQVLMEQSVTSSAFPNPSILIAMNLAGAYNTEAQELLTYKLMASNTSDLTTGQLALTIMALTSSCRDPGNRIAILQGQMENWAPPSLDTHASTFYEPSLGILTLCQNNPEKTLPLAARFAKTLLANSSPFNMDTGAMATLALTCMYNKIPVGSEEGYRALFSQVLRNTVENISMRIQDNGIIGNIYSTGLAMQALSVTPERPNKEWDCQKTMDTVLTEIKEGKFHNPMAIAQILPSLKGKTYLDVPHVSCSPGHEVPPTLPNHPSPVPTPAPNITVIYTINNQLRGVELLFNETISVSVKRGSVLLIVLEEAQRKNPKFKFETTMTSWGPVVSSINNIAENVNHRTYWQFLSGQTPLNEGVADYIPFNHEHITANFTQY

Substance	% binding relative to vitamin B12
5'OH-(aminoethyl)-VB12 [aminoethyl-5'O-VB12]	40%
5'OH-(aminohexyl)-VB12 [aminohexyl-5'O-VB12]	25%
5'OH-(succinylhydrazidyl)-VB12 [succinylhydrazidyl-5'O-VB12]	37%
5'OH-(adipylhydrazidyl)-VB12 [adiphylhydrazidyl-5'O-VB12]	29%
5'OH-(aminododecanyl)-VB12 [aminododecanyl-5'O-VB12]	31%
5'OH-(hexyl)-VB12 [hexyl-5'O-VB12]	49%
5'OH-(hexadecyl)-VB12 [hexadecy-5'O-VB12]	0.78%
5'OH-(aminobutyl)-VB12 [aminobutyl-5'O-VB12]	27%
5'OH-(tetradecyl)-VB12 [tetradecyl-5'O-VB12]	4.2%
VB12 -glycine acid [HO-Gly-5'O-VB12]	25%
5'OH-(dodecyl)-VB12 [dodecyl-5'O-VB12]	35%
5'OH-(octadecyl)-VB12 [octadecyl-5'O-VB12]	0.57%
